Data from US20140309295A1, “ANTIEPILEPTIC, HYPOCHOLESTEROLEMIC AND NEUROPROTECTIVE COMPOUND” (NEURON BIOPHARMA, S.A., priority 2009, published 2014).

What was measured:
[1] = system: FVB/NHan mice inoculated with kainate (KA); experiment: Antiepileptic effect against kainate in mice (Racine scale); format: in vivo
Method: All the animals included for the experimental process were 12-week old males of the FVB/NHan strain. The experiments were conducted strictly following the Guidance on the Operation of Animals (Scientific Procedures, Act. 1986). The animals had their respective quarantine period and were treated with maximum precaution to minimize possible contaminations for inoculations and handling.
The animals were intraperitoneally inoculated with 25 mg/kg of kainate (KA) dissolved in PBS. Thirteen animals were pre-treated 24 and 0.5 hours before inoculation with KA by means of intraperitoneal injection with PBS (PBS+KA administration regimen) and 6 were pre-treated 24 and 0.5 hours before inoculation with KA by means of intraperitoneal injection with NST0037 at a dose of 50 mg/kg (NST0037+KA administration regimen). After the inoculation, the animals were individually housed in trays to monitor them. The maximum epilepsy level of the animals was recorded during the observation according to the Racine scale every ten minutes and for at least 120 minutes post-inoculation (m.p.i.).

seladin-1/DHCR24 gene = seladin-1/DHCR24 gene expression in SK-N-MC cells (real-time quantitative RT-PCR); format: cell-based, human; conditions: 1, 4, 10 or 40 μM, 24 hours
Method: (§1) The assay was performed on human neuroblastoma SK-N-MC cells in culture from the American Type Culture Collection (ATCC), in all cases strict rules of sterility were followed and the manipulation was performed in class II biological safety cabinets following European standard EN 12469. The cells were maintained in the following culture medium: Minimum Essential Medium Eagle (MEM) supplemented with 1 mM sodium pyruvate, 2 mM L-glutamine, 0.1 mM non-essential amino acids, 0.05 mg/ml gentamicin and 10% fetal bovine serum.
The expression of the seladin-1/DHCR24 gene (NCBI Reference Sequence: NM_014762.3) was analyzed by means of real-time quantitative RT-PCR in comparison with memantine (a drug normally used to treat Alzheimer's disease). […] The total RNA was extracted by means of the High Pure RNA Isolation kit (Roche) and the amount and quality of the RNA were analyzed by means of spectrophotometry (Infinite 200 with NanoQuant, Tecan) and viewing of the 18S and 28S bands by means of electrophoresis. The RT-PCR was performed by means of two steps, first, the mRNA was changed to cDNA using the RNA to cDNA kit (Applied Biosystem) and the gene expression was subsequently analyzed by means of TaqMan probes using the validated probes Hs00207388_m1 for seladin-1/DHCR24 and Hs99999901_s1 for 18S (used to normalize the results) in the 7500 Fast Real-Time PCR System equipment (Applied Biosystem). […]

[2] = system: human neuroblastoma SK-N-MC cells; experiment: Protection against neuronal death induced by inhibition of succinate dehydrogenase (3-NP), WST-1; format: cell-based; conditions: 40 μM NST0037; 30 μM 3-NP
Method: as §1
The inhibition caused by compound NST0037 of cell death caused by treatment with 3-Nitropropionic (3-NP) acid was analyzed. 3-NP is an irreversible inhibitor of the succinate dehydrogenase enzyme which in animal models causes oxidative stress and apoptotic cell death in the striatum, which mimics neurochemical and anatomical changes associated with Huntington's disease (HD). […]
The cells were incubated (at 37° C. and 5% CO2) with these treatments for 22 hours, after which time the WST-1 reagent (Roche) was added. […] The formazan which is formed can be detected colorimetrically since it has an absorbance of 440 nm. The reading was taken in a plate reader at 440 nm 2 hours after adding the reagent.

[3] = system: SK-N-MC (human neuroblastoma) line; experiment: Total cholesterol levels in neuronal cell line; format: cell-based; conditions: acid compounds, 20 hours, absence of FBS
Method: To carry out this assay, the compounds were activated with NaOH until the lactone form was completely opened.
Both the Hep G2 (human hepatocarcinoma) line and the SK-N-MC (human neuroblastoma) line were obtained from the American Type Culture Collection (ATCC no. HB-8065 and HTB-10 respectively). In all cases strict rules of sterility were followed and the manipulation was performed in class II biological safety cabinets following European standard EN 12469. The cells maintained in passage were seeded in 96-well plates in MEM supplemented with 10% FBS, 2 mM L-glutamine, 1 mM sodium pyruvate, 0.1 mM non-essential amino acids and 0.05 mg/mL gentamicin. In the case of HepG2, 4×10^4 cells/well were seeded and in the case of SK-N-MC 5×10^4 cells/well were seeded. After 24 hours had elapsed from the seeding, the cells were deprived of FBS for 8 hours. The cells were then incubated with the treatments at various concentrations for 20 hours. After the incubation period, the cells were washed with PBS and lysed with a phosphate buffer with 0.5% Triton X-100. […]
The total cholesterol was quantified by means of enzymatic and fluorometric techniques. […] The fluorescence intensity was determined at 530 nm of excitation and 580 nm of emission by means of a fluorometer. The results were normalized by protein, which was determined by means of the BCA technique.

CCC(CC)C(=O)O[C@H]1C[C@@H](C)C=C2C=C[C@H](C)[C@H](CC[C@@H]3C[C@@H](O)CC(=O)O3)[C@H]21 [NST0037, (1S,2S,6R,8S,8aR)-1,2,6,7,8,8a-hexahydro-3,7-dimethyl-8-[2-[(2R,4R)-tetrahydro-4-hydroxy-6-oxo-2H-pyran-2-yl]ethyl]-1-naphthalenyl-2-ethyl-butyrate]
epileptogenic symptoms from 100 m.p.i. ([1]; NST0037+KA regimen): caused the disappearance of the epileptogenic symptoms | epilepsy level on the Racine scale ([1]; NST0037+KA, 120 minutes observation): < 3 | seladin-1/DHCR24 gene expression (seladin-1/DHCR24 gene): increase of seladin-1/DHCR24 gene expression | protection against death caused by 3-NP [2]: 41% | reduction of total cholesterol levels [3]: reductions of cholesterol with both compounds were similar
